Experimental data taken from PubChem BioAssay (NCI).
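Exposure lasted 48 hours, with cells grown in 96-well plates and compounds tested at five concentrations. Abbreviation: GI50, concentration required for 50% inhibition of growth. TGI marks complete inhibition of growth.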

Legend:
Experiment in all cases: NCI-60 cell line screen, 48 h
[1] = tested on: HCT-15 colon
[2] = tested on: IGROV1 ovarian
[3] = tested on: ACHN renal
[4] = tested on: SK-MEL-2 melanoma
[5] = tested on: RPMI-8226 leukemia
[6] = tested on: SN12C renal
[7] = tested on: NCI/ADR-RES ovarian
[8] = tested on: OVCAR-4 ovarian
[9] = tested on: SNB-19 CNS
[10] = tested on: UO-31 renal
[11] = tested on: DU-145 prostate
[12] = tested on: UACC-62 melanoma
[13] = tested on: T-47D breast
[14] = tested on: CAKI-1 renal
[15] = tested on: COLO 205 colon
[16] = tested on: SF-268 CNS
[17] = tested on: OVCAR-5 ovarian
[18] = tested on: HS 578T breast
[19] = tested on: SNB-75 CNS
[20] = tested on: MALME-3M melanoma
[21] = tested on: OVCAR-8 ovarian
[22] = tested on: LOX IMVI melanoma
[23] = tested on: TK-10 renal
[24] = tested on: HOP-92 NSCLC
[25] = tested on: CCRF-CEM leukemia
[26] = tested on: NCI-H460 lung
[27] = tested on: HCT-116 colon
[28] = tested on: OVCAR-3 ovarian
[29] = tested on: SF-295 CNS
[30] = tested on: K-562 leukemia
[31] = tested on: A549 NSCLC
[32] = tested on: M14 melanoma
[33] = tested on: UACC-257 melanoma
[34] = tested on: SW-620 colon
[35] = tested on: MDA-MB-435
[36] = tested on: SK-MEL-28 melanoma
[37] = tested on: U251 CNS
[38] = tested on: PC-3 prostate
[39] = tested on: MDA-MB-231 breast
[40] = tested on: MCF7 breast
[41] = tested on: SK-OV-3 ovarian
[42] = tested on: HCC-2998 colon
[43] = tested on: RXF 393 renal
[44] = tested on: EKVX NSCLC
[45] = tested on: NCI-H522 lung
[46] = tested on: NCI-H226 lung
[47] = tested on: HL-60(TB) leukemia
[48] = tested on: BT-549 breast
[49] = tested on: MOLT-4 leukemia
[50] = tested on: NCI-H23 lung
[51] = tested on: SR leukemia
[52] = tested on: A498 renal
[53] = tested on: KM12 colon
[54] = tested on: HT29 colon
[55] = tested on: SK-MEL-5 melanoma
[56] = tested on: MDA-MB-468 breast
[57] = tested on: 786-0 renal
[58] = tested on: SF-539 CNS
[59] = tested on: HOP-62 NSCLC

In the case of `Clc1ccc(-c2nc3ccc(-c4nnc(SCc5ccccc5)o4)cc3[nH]2)cc1`, the GI50 [1] is reported as 3.75 µM, the TGI [1] is reported as 27.4 µM and the GI50 [2] is reported as 7.37 µM. For the same molecule, the TGI [2] was over 100 µM, the GI50 [3] was 14.5 µM and the TGI [3] was over 100 µM. For the same molecule, the GI50 [4] was 16.2 µM, the TGI [4] was over 100 µM and the GI50 [5] was 8.07 µM. For the same molecule, the TGI [5] was over 100 µM, the GI50 [6] was 1870 nM and the TGI [6] was 4.05 µM. The GI50 [7] was 4.09 µM, the TGI [7] was 21.5 µM and the GI50 [8] was 3.87 µM. For the same molecule, the TGI [8] was 21.9 µM, the GI50 [9] was 5.85 µM and the TGI [9] was over 100 µM. The GI50 [10] was 9.18 µM, the TGI [10] was over 100 µM and the GI50 [11] was 57 µM. The TGI [11] was over 100 µM, the GI50 [12] was 13.8 µM and the TGI [12] was over 100 µM. For the same molecule, the GI50 [13] was 3.05 µM, the TGI [13] was 41.3 µM and the GI50 [14] was 16.1 µM. For the same molecule, the TGI [14] was 54.7 µM, the GI50 [15] was 15.5 µM and the TGI [15] was over 100 µM. For the same molecule, the GI50 [16] was 7.59 µM, the TGI [16] was over 100 µM and the GI50 [17] was 5.87 µM. The TGI [17] was 97.1 µM, the GI50 [18] was 12.2 µM and the TGI [18] was over 100 µM. For the same molecule, the GI50 [19] was 2.13 µM, the TGI [19] was 22.9 µM and the GI50 [20] was 16.1 µM. The TGI [20] was 83.2 µM, the GI50 [21] was 6.49 µM and the TGI [21] was 27.5 µM. It also gave a GI50 [22] of 4.95 µM, a TGI [22] of 40.7 µM and a GI50 [23] of over 100 µM. The TGI [23] was over 100 µM, the GI50 [24] was 11.5 µM and the TGI [24] was 48.3 µM. The GI50 [25] was 4.91 µM, the TGI [25] was over 100 µM and the GI50 [26] was 5.37 µM. The TGI [26] was over 100 µM, the GI50 [27] was 3.25 µM and the TGI [27] was over 100 µM. For the same molecule, the GI50 [28] was 2.7 µM, the TGI [28] was 7.61 µM and the GI50 [29] was 5.41 µM. For the same molecule, the TGI [29] was 52.3 µM, the GI50 [30] was 4.78 µM and the TGI [30] was over 100 µM. It also gave a GI50 [31] of 3.78 µM, a TGI [31] of over 100 µM and a GI50 [32] of 25.5 µM. For the same molecule, the TGI [32] was over 100 µM, the GI50 [33] was 22.8 µM and the TGI [33] was over 100 µM. The GI50 [34] was 3.41 µM, the TGI [34] was 43.2 µM and the GI50 [35] was 8.65 µM. For the same molecule, the TGI [35] was over 100 µM, the GI50 [36] was 36.9 µM and the TGI [36] was over 100 µM. The GI50 [37] was 2.69 µM, the TGI [37] was 6.8 µM and the GI50 [38] was 6.21 µM. For the same molecule, the TGI [38] was over 100 µM, the GI50 [39] was 5.36 µM and the TGI [39] was 36.1 µM. It also gave a GI50 [40] of 3.08 µM, a TGI [40] of over 100 µM and a GI50 [41] of 23 µM. It also gave a TGI [41] of over 100 µM, a GI50 [42] of 19.9 µM and a TGI [42] of over 100 µM. The GI50 [43] was 3.58 µM, the TGI [43] was 48.6 µM and the GI50 [44] was 4.18 µM. For the same molecule, the TGI [44] was 39 µM, the GI50 [45] was 2.83 µM and the TGI [45] was 10.3 µM. It also gave a GI50 [46] of 7.54 µM, a TGI [46] of 36 µM and a GI50 [47] of 26.2 µM. The TGI [47] was over 100 µM, the GI50 [48] was 24 µM and the TGI [48] was over 100 µM. For the same molecule, the GI50 [49] was 4.71 µM, the TGI [49] was over 100 µM and the GI50 [50] was 6.21 µM. It also gave a TGI [50] of 74.2 µM, a GI50 [51] of 5.86 µM and a TGI [51] of over 100 µM. For the same molecule, the GI50 [52] was 18.2 µM, the TGI [52] was 42.5 µM and the GI50 [53] was 17.6 µM. For the same molecule, the TGI [53] was over 100 µM, the GI50 [54] was 16.9 µM and the TGI [54] was over 100 µM. The GI50 [55] was 4.87 µM, the TGI [55] was 33.4 µM and the GI50 [56] was 3.32 µM. For the same molecule, the TGI [56] was 15.3 µM, the GI50 [57] was 4.03 µM and the TGI [57] was over 100 µM. It also gave a GI50 [58] of 2980 nM, a TGI [58] of 10.2 µM and a GI50 [59] of 16.4 µM. The TGI [59] was 86.6 µM.

For `Cc1ccc(-c2cc(C(=O)N=Nc3c(O)[nH]c4ccc(F)cc34)c3ccccc3n2)cc1`, the GI50 [1] was 2.39 µM, the TGI [1] was 15.3 µM and the GI50 [2] was 12.5 µM. It also gave a TGI [2] of 28.5 µM, a GI50 [3] of 12.7 µM and a TGI [3] of 26 µM. For the same molecule, the GI50 [4] was 17 µM, the TGI [4] was 35 µM and the GI50 [5] was 10.6 µM. The TGI [5] was over 100 µM, the GI50 [6] was 3730 nM and the TGI [6] was 16.5 µM. It also gave a GI50 [7] of 3.53 µM, a TGI [7] of 27.5 µM and a GI50 [8] of 5.68 µM. For the same molecule, the TGI [8] was 26.6 µM, the GI50 [9] was 17.3 µM and the TGI [9] was 42.3 µM. It also gave a GI50 [10] of 12.3 µM, a TGI [10] of 24.8 µM and a GI50 [11] of 15.6 µM. For the same molecule, the TGI [11] was 52.1 µM, the GI50 [12] was 9.81 µM and the TGI [12] was 22.7 µM. For the same molecule, the GI50 [13] was 11 µM, the TGI [13] was 54.2 µM and the GI50 [14] was 12.2 µM. It also gave a TGI [14] of 27.3 µM, a GI50 [15] of 15.7 µM and a TGI [15] of 34.5 µM. For the same molecule, the GI50 [16] was 8.11 µM, the TGI [16] was 49.5 µM and the GI50 [17] was 10.2 µM. The TGI [17] was 23.9 µM, the GI50 [18] was 7.2 µM and the TGI [18] was 66.3 µM. The GI50 [19] was 10.5 µM, the TGI [19] was 33.3 µM and the GI50 [20] was 8.77 µM. The TGI [20] was 21.6 µM, the GI50 [21] was 4.72 µM and the TGI [21] was 33.2 µM. For the same molecule, the GI50 [22] was 4.1 µM, the TGI [22] was 16.6 µM and the GI50 [23] was 19.6 µM. For the same molecule, the TGI [23] was 36.1 µM, the GI50 [24] was 11.5 µM and the TGI [24] was 30.8 µM. It also gave a GI50 [25] of 2.11 µM, a TGI [25] of over 100 µM and a GI50 [26] of 3.96 µM. For the same molecule, the TGI [26] was 19.8 µM, the GI50 [27] was 3.36 µM and the TGI [27] was 13.8 µM. It also gave a GI50 [28] of 8.75 µM, a TGI [28] of 30.4 µM and a GI50 [29] of 11.4 µM. It also gave a TGI [29] of 26.1 µM, a GI50 [30] of 4.27 µM and a TGI [30] of over 100 µM. The GI50 [31] was 5.21 µM, the TGI [31] was 22.6 µM and the GI50 [32] was 11.6 µM. The TGI [32] was 28 µM, the GI50 [33] was 16.7 µM and the TGI [33] was 33.5 µM. For the same molecule, the GI50 [34] was 5.53 µM, the TGI [34] was 26 µM and the GI50 [35] was 11.1 µM. The TGI [35] was 27.8 µM, the GI50 [36] was 10.2 µM and the TGI [36] was 22.3 µM. The GI50 [37] was 4.09 µM, the TGI [37] was 18.2 µM and the GI50 [38] was 9.49 µM. For the same molecule, the TGI [38] was 91 µM, the GI50 [39] was 3.42 µM and the TGI [39] was 13.6 µM. The GI50 [40] was 4.6 µM, the TGI [40] was 23 µM and the GI50 [41] was 18.9 µM. The TGI [41] was 38.5 µM, the GI50 [42] was 15.1 µM and the TGI [42] was 32.7 µM. The GI50 [43] was 7.77 µM, the TGI [43] was 22.5 µM and the GI50 [44] was 10.8 µM. The TGI [44] was 27.4 µM, the GI50 [45] was 11.8 µM and the TGI [45] was 27.5 µM. It also gave a GI50 [46] of 17.4 µM, a TGI [46] of 37.2 µM and a GI50 [47] of 15.4 µM. The TGI [47] was 54 µM, the GI50 [48] was 10.7 µM and the TGI [48] was 25.7 µM. The GI50 [49] was 4.29 µM, the TGI [49] was over 100 µM and the GI50 [50] was 4.2 µM. The TGI [50] was 18.4 µM, the GI50 [51] was 8.17 µM and the TGI [51] was over 100 µM. The GI50 [52] was 19 µM, the TGI [52] was 34.1 µM and the GI50 [53] was 12.5 µM. The TGI [53] was 56 µM, the GI50 [54] was 5.23 µM and the TGI [54] was 19.2 µM. The GI50 [55] was 15.2 µM, the TGI [55] was 30.1 µM and the GI50 [56] was 9.09 µM. The TGI [56] was 23.6 µM, the GI50 [57] was 16.6 µM and the TGI [57] was 39.1 µM. It also gave a GI50 [58] of 2640 nM, a TGI [58] of 8.66 µM and a GI50 [59] of 4.48 µM. For the same molecule, the TGI [59] was 18.6 µM.
